The results in this text go back to patent US20090081197A1 (Palatin Technologies, Inc., priority 2007, published 2009).

Test [1] can be described thus: Penile erection induction in male rats. The conditions noted are these: rat, ICV. The class given is in vivo. The method in brief: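 Male Sprague-Dawley rats (200-250 g), groups of 4-8, dosed IV or ICV at various doses and observed individually for penile erections. Only statistically relevant increases over vehicle-control mean PEs count as induction; IV responses below 1.0 PEs/rat treated as equivocal, some retested ICV.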

For a further test, the target named is MC5-R (Homo sapiens, UniProt P33032). In words: Competitive inhibition assay using [I^125]-NDP-α-MSH, hMC5-R membranes. Also on record: expressed in transfected cells. The class given is binding. The conditions noted are these: 1 μM test compound; read-out: Inhibition at 1 μM (NDP-α-MSH) In Normal System, MC5-R. The method in brief:
(§1)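 Tracer was 0.4 nM for MC3-R and MC5-R, 0.2 nM for MC4-R and 0.1 nM for MC1-R. Bound radioactivity was gamma-counted after filtration; values are triplicate means, with results below 0% reported as 0%.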

Test [2] has as its target T1, MC4-R (Homo sapiens, UniProt P32245). Kind of test: Competitive inhibition assay using [I^125]-NDP-α-MSH, hMC4-R membranes. The class given is binding. Also on record: host or cells: TREx-293 (HEK-293 stably expressing Tet repressor). The conditions noted are these: 1 μM test compound; read-out: Inhibition at 1 μM (NDP-α-MSH) In Normal System, MC4-R. The essentials:
as §1

A further test deals with MC3-R (Homo sapiens, UniProt P41968). Kind of test: Competitive inhibition assay using [I^125]-NDP-α-MSH, hMC3-R membranes. Also on record: expressed in transfected cells. It is filed as binding. The conditions noted are these: 1 μM test compound; read-out: Inhibition at 1 μM (NDP-α-MSH) In Normal System, MC3-R. The method in brief:
as §1

A further test concerns the target T2, human MC1-R (Homo sapiens, UniProt Q01726).
T2 construct: expressed in transfected cells
In words: Competitive inhibition assay using [I^125]-NDP-α-MSH, human MC1-R (separate experiments). The class given is binding. The conditions noted are these: separate experiments with human MC1-R; read-out: Ki (nM) (NDP-α-MSH) in a normal system, human MC1-R.

Test [3] has as its target T1, MC4-R. In words: cAMP agonist stimulation, high receptor density system (10 ng/mL doxycycline). The conditions noted are these: 10 ng/mL doxycycline, high receptor density hMC4-R system; NDP-α-MSH maximal cAMP = 1.0.
For test [4], the target named is T1, MC4-R. In words: cAMP functional activity assay in HEK-293 cells, normal system. It is filed as cell-based. Set-up: expressed in transfected cells; host or cells: HEK-293. Particulars: at 1 nM dose.
Test [5] concerns the target T1, MC4-R. Kind of test: Assay for neutral antagonist, Schild analysis (pA2) against NDP-α-MSH. It is filed as cell-based. Set-up: expressed in transfected cells; host or cells: HEK-293. The conditions noted are these: Schild analysis vs NDP-α-MSH; read-out: pA2 value as antagonist at MC4-R in a normal system (converted). Here is the method:
Assay for Neutral Antagonist. […] These studies were carried out in HEK-293 cells expressing the MC4-R receptor. Cells were incubated with the compounds in the presence of the agonist NDP-α-MSH and the extent of antagonism was measured by the decrease in the level of intracellular cAMP. Screening the compounds for antagonists was done at a single concentration of NDP-α-MSH (1.0 nM) over a compound concentration range of 0.5-5000 nM.
Experimental details were similar to the analysis for agonistic activity described above. Briefly, cells were pre-incubated for 30 minutes with the test compounds at concentrations between 0.5 nM and 5000 nM. The cells were then stimulated with NDP-α-MSH at a concentration of 1 nM for 1 hour. For Schild analysis, the interactions were studied using at least 3 concentrations of the compounds, separated by a log unit, over a full range of the agonist (0.005-5000 nM). cAMP levels was measured in the cell lysates after appropriate dilution. Nonlinear regression analysis with Prism Graph-Pad software was used for Schild analysis and to obtain EC50 values. pA2 values were derived from the Schild plot of the data.

The next test addresses T3, MC1-R (Mus musculus, UniProt Q01727).
T3 construct: B-16 mouse melanoma cells (containing MC1-R); endogenous in cells
Kind of test: Competitive inhibition assay using [I^125]-NDP-α-MSH, B-16 mouse melanoma cell membranes. It is filed as binding. The conditions noted are these: 1 μM test compound; read-out: Inhibition at 1 μM (NDP-α-MSH) In Normal System, MC1-R. The essentials: as §1

The nature of test [6]: ICV food intake and body weight change. The class given is in vivo. The conditions noted are these: rat, 1 nmol. The essentials: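 Rats fitted with intracerebroventricular cannulas and fed ad libitum got a single ICV dose of vehicle or compound (1-3 nmol). Food intake and body-weight change over the 24 h after dosing were compared with a 1-week vehicle baseline. Values at 48 h and 72 h were also recorded to follow return to baseline.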

Test [7] has as its target T1, MC4-R. Kind of test: cAMP agonist stimulation, low receptor density system (0.1 ng/mL doxycycline). Particulars: 0.1 ng/mL doxycycline, low receptor density hMC4-R system; NDP-α-MSH maximal cAMP = 1.0.

Positions of bridges follow the written chain, without caps; N, C: chain ends. Non-standard residues stand in square brackets, D forms with d. Residues, ends and D or L forms follow the SMILES beside them. 2Nal = N[C@@H](Cc1ccc2ccccc2c1)C(=O)O; d2Nal = N[C@H](Cc1ccc2ccccc2c1)C(=O)O; Nle = CCCC[C@H](N)C(=O)O

T1 sequence (P32245 whole entry): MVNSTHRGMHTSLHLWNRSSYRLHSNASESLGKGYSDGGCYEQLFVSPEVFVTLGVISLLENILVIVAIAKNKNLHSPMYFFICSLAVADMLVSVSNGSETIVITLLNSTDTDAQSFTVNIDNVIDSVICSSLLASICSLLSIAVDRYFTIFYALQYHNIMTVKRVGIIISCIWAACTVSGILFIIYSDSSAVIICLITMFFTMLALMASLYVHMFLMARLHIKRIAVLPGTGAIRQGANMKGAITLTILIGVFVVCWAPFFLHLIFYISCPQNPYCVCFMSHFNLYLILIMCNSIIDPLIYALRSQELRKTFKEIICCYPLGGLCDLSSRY
T3 sequence (Q01727 whole entry): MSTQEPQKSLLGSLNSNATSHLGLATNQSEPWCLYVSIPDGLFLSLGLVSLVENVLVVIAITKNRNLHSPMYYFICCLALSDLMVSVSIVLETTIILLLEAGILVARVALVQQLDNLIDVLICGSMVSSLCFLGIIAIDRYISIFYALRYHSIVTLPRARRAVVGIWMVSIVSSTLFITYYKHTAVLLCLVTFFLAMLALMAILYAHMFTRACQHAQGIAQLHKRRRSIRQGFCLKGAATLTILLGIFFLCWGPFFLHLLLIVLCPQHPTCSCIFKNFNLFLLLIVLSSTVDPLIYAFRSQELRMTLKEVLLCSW
T2 sequence (Q01726 whole entry): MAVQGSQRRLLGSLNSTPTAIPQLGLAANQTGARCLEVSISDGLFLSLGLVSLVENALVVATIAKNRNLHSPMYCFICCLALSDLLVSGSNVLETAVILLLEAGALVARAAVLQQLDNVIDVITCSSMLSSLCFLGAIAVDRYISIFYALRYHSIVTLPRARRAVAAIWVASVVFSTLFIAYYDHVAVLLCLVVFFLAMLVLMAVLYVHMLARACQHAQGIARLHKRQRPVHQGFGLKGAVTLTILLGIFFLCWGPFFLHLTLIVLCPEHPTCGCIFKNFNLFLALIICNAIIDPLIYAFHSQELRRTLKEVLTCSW
Chain of MC3-R (P41968 whole entry): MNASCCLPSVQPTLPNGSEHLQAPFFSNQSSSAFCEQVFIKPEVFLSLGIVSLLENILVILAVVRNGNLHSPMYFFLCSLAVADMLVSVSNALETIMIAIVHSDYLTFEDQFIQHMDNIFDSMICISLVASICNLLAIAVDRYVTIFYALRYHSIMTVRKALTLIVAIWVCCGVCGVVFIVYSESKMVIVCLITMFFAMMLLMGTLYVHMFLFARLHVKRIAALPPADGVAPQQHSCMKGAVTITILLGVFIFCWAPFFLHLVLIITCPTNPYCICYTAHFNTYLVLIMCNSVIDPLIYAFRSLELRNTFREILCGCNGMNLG
Chain of MC5-R (P33032 whole entry): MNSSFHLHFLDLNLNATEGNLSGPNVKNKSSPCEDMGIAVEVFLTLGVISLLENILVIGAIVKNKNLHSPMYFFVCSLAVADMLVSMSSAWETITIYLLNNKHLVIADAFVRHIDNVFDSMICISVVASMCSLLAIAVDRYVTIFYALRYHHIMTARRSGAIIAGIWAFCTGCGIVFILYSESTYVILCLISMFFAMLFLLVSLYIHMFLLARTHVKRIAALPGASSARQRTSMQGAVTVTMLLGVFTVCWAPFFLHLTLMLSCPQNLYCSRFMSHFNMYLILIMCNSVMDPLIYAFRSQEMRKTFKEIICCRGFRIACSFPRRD

As usually defined, the inhibition is the relative decrease from the control value, in per cent. One may read the Ki as the equilibrium dissociation constant of an inhibitor or competing ligand from its target. For the molecule `CCCC[C@H](NC(C)=O)C(=O)N[C@H]1CC(=O)NCCCC[C@@H](C(=O)O)NC(=O)[C@H](Cc2ccc3ccccc3c2)NC(=O)[C@H](CCCNC(=N)N)NC(=O)[C@@H](Cc2ccc3ccccc3c2)NC(=O)[C@H](Cc2c[nH]cn2)NC1=O` [Example 34, Ac-Nle-cyclo(Asp-His-D-Nal 2-Arg-Nal 2-Lys)-OH] (Ac-[Nle]DH[d2Nal]R[2Nal]K-OH; lactam 2-7), the “Penile Erection ICV” value in [1] is recorded as “No”. Further, in test [1] (3 nanomole), the PE efficacy entry is “inactive”. For the same molecule, the inhibition at 1 µM is 100% on MC5-R, 100% on MC4-R [2], 98% at MC3-R and 102% on MC1-R. Further, the inhibition constant Ki on human MC1-R was 0.25 nM. Also, the “Efficacy/Intrinsic Activity” value at MC4-R [3] and at MC4-R [7] was “None” throughout. For the same molecule, the “functional status at MC4-R in cAMP assay” value on MC4-R [4] is “inactive”. The Kb at MC4-R [5] is 7.94 nM. The “24 hour increase in food intake” value in [6] is listed as 12 g. The “increase in body weight” value in test [6] (24 hours) was 16 g.
